Laboratory results from patent publication US9144598B2, “Reverse thermal gels and their use in cell therapy” (University of Pittsburgh—Of the Commonwealth System of …, priority 2010, dated 2015).
No end group written: not given here.

Key:
SH-SY5Y = assay: 2D neuronal cell culture: cell attachment and neurite outgrowth; assay type: cell-based; settings: for neurite outgrowth without RA / neurite outgrowth with RA: 14-day culture; for neurite outgrowth with RA: 10 μM retinoic acid from day 7; for cell attachment on surface: 15% (wt) gel or laminin coated plate
Protocol: Cells, SH-SY5Y (ATCC, CRL-2266), were cultured in DMEM/F12 (1:1) medium with 10% fetal bovine serum (FBS), and 1% antibiotics. The cells were incubated in a humidified atmosphere with 5% CO2 at 37° C. The medium was refreshed every three days until the cells reached 95% confluence. The cells were harvested from the petri dish by incubation in 1 ml of trypsin solution (0.25%) for 5 min, neutralizing with 5 ml of serum-supplemented medium, centrifugation and removal of supernatant. The cell pellets were resuspended in serum-supplemented medium and 5×10^3 cells was used immediately for 2D neuronal cell culture.
Fifty μl of each solution (15%, wt) of pure reverse thermal gel and IKVAVS-GEL was transferred into 96-well plate on 37° C. heating plate. After 5 min, cell suspension (5×10^3 cells) in 150 μl of medium was added on top of the gel. For a control, the same number of cell suspension in 200 μl of medium was transferred into laminin coated 96-well plate. A 100 μl of medium was refreshed every two days. The cell growth was examined on a microscope. After 7-day culture, 10 μM of retinoic acid (RA) was added and neurite outgrowth was monitored on a microscope.

[1] = buffer
Protocol: The storage modus (G′) of the polymer solutions in phosphate buffered saline (PBS) solution was measured by rheometer from 20° C. to 55° C.

Sprague Dawley rats = settings: rat, in vivo, sc
Protocol: In vivo biocompatibility was evaluated in Sprague Dawley rats.

Substance	neurite outgrowth without RA (SH-SY5Y)	neurite outgrowth with RA (SH-SY5Y)	cell attachment on surface (SH-SY5Y)	temperature range in which it remained gel [1]	inflammatory response (Sprague Dawley rats)
IKVAVS-GEL: IKVAVS (SEQ ID NO: 21) conjugated reverse thermal gel (also: conjugated to reverse thermal gel; listed as Homo sapiens)	much better than that on pure reverse thermal gel	much better than that on pure reverse thermal gel	attached well	–	–
laminin [reference compound]	some short neurite outgrowth	much dense and longer neurite outgrowth	attached very well	–	–
poly(ethylene glycol)-poly(serinol hexamethylene urethane) [ESHU]	–	–	–	37-40 °C	well tolerated inflammatory response
